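These data come from cells grown in 96-well plates and exposed to compound for 48 hours at five concentrations. Here, GI50 denotes the concentration required for 50% inhibition of growth. TGI denotes the concentration required for complete inhibition of growth.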
What was measured:
Assay in all cases: inhibition of tumour cell growth, NCI panel, 48 h
786-0 renal = tested on: 786-0 renal
A498 renal = tested on: A498 renal
A549 NSCLC = tested on: A549 NSCLC
ACHN renal = tested on: ACHN renal
BT-549 breast = tested on: BT-549 breast
CAKI-1 renal = tested on: CAKI-1 renal
CCRF-CEM leukemia = tested on: CCRF-CEM leukemia
COLO 205 colon = tested on: COLO 205 colon
DU-145 prostate = tested on: DU-145 prostate
EKVX NSCLC = tested on: EKVX NSCLC
HCC-2998 colon = tested on: HCC-2998 colon
HCT-116 colon = tested on: HCT-116 colon
HCT-15 colon = tested on: HCT-15 colon
HL-60(TB) leukemia = tested on: HL-60(TB) leukemia
HOP-62 NSCLC = tested on: HOP-62 NSCLC
HOP-92 NSCLC = tested on: HOP-92 NSCLC
HS 578T breast = tested on: HS 578T breast
HT29 colon = tested on: HT29 colon
IGROV1 ovarian = tested on: IGROV1 ovarian
K-562 leukemia = tested on: K-562 leukemia
KM12 colon = tested on: KM12 colon
LOX IMVI melanoma = tested on: LOX IMVI melanoma
M14 melanoma = tested on: M14 melanoma
MALME-3M melanoma = tested on: MALME-3M melanoma
MCF7 breast = tested on: MCF7 breast
MDA-MB-231 breast = tested on: MDA-MB-231 breast
MDA-MB-435 = tested on: MDA-MB-435
MOLT-4 leukemia = tested on: MOLT-4 leukemia
NCI-H226 lung = tested on: NCI-H226 lung
NCI-H23 lung = tested on: NCI-H23 lung
NCI-H460 lung = tested on: NCI-H460 lung
NCI-H522 lung = tested on: NCI-H522 lung
NCI/ADR-RES ovarian = tested on: NCI/ADR-RES ovarian
OVCAR-3 ovarian = tested on: OVCAR-3 ovarian
OVCAR-4 ovarian = tested on: OVCAR-4 ovarian
OVCAR-5 ovarian = tested on: OVCAR-5 ovarian
OVCAR-8 ovarian = tested on: OVCAR-8 ovarian
PC-3 prostate = tested on: PC-3 prostate
RPMI-8226 leukemia = tested on: RPMI-8226 leukemia
RXF 393 renal = tested on: RXF 393 renal
SF-268 CNS = tested on: SF-268 CNS
SF-295 CNS = tested on: SF-295 CNS
SF-539 CNS = tested on: SF-539 CNS
SK-MEL-2 melanoma = tested on: SK-MEL-2 melanoma
SK-MEL-28 melanoma = tested on: SK-MEL-28 melanoma
SK-MEL-5 melanoma = tested on: SK-MEL-5 melanoma
SK-OV-3 ovarian = tested on: SK-OV-3 ovarian
SN12C renal = tested on: SN12C renal
SNB-19 CNS = tested on: SNB-19 CNS
SNB-75 CNS = tested on: SNB-75 CNS
SR leukemia = tested on: SR leukemia
SW-620 colon = tested on: SW-620 colon
T-47D breast = tested on: T-47D breast
TK-10 renal = tested on: TK-10 renal
U251 CNS = tested on: U251 CNS
UACC-257 melanoma = tested on: UACC-257 melanoma
UACC-62 melanoma = tested on: UACC-62 melanoma
UO-31 renal = tested on: UO-31 renal

Question: With `CNC(=O)c1ccc2cc(C3(O)CCn4cncc43)ccc2c1` (stereo unspecified) as the compound, how does the GI50 (786-0 renal) read?
Answer: > 100 µM

Question: And the TGI (786-0 renal)?
Answer: > 100 µM

Question: What about the GI50 (A498 renal) of the same compound?
Answer: > 100 µM

Question: What about the TGI (A498 renal) of the same compound?
Answer: > 100 µM

Question: And the GI50 (A549 NSCLC)?
Answer: > 100 µM

Question: And the TGI (A549 NSCLC)?
Answer: > 100 µM

Question: And the GI50 (ACHN renal)?
Answer: > 100 µM

Question: And the TGI (ACHN renal)?
Answer: > 100 µM

Question: And the GI50 (BT-549 breast)?
Answer: > 100 µM

Question: And the TGI (BT-549 breast)?
Answer: > 100 µM

Question: What about the GI50 (CAKI-1 renal) of the same compound?
Answer: > 100 µM

Question: And the TGI (CAKI-1 renal)?
Answer: > 100 µM

Question: And the GI50 (CCRF-CEM leukemia)?
Answer: > 100 µM

Question: What about the TGI (CCRF-CEM leukemia) of the same compound?
Answer: > 100 µM

Question: And the GI50 (COLO 205 colon)?
Answer: > 100 µM

Question: What about the TGI (COLO 205 colon) of the same compound?
Answer: > 100 µM

Question: What about the GI50 (DU-145 prostate) of the same compound?
Answer: > 100 µM

Question: And the TGI (DU-145 prostate)?
Answer: > 100 µM

Question: And the GI50 (EKVX NSCLC)?
Answer: > 100 µM

Question: What about the TGI (EKVX NSCLC) of the same compound?
Answer: > 100 µM

Question: And the GI50 (HCC-2998 colon)?
Answer: > 100 µM

Question: And the TGI (HCC-2998 colon)?
Answer: > 100 µM

Question: What about the GI50 (HCT-116 colon) of the same compound?
Answer: > 100 µM

Question: And the TGI (HCT-116 colon)?
Answer: > 100 µM

Question: What about the GI50 (HCT-15 colon) of the same compound?
Answer: > 100 µM

Question: What about the TGI (HCT-15 colon) of the same compound?
Answer: > 100 µM

Question: And the GI50 (HL-60(TB) leukemia)?
Answer: > 73.5 µM

Question: And the TGI (HL-60(TB) leukemia)?
Answer: > 100 µM

Question: And the GI50 (HOP-62 NSCLC)?
Answer: > 100 µM

Question: What about the TGI (HOP-62 NSCLC) of the same compound?
Answer: > 100 µM

Question: And the GI50 (HOP-92 NSCLC)?
Answer: > 100 µM

Question: What about the TGI (HOP-92 NSCLC) of the same compound?
Answer: > 100 µM

Question: What about the GI50 (HS 578T breast) of the same compound?
Answer: > 100 µM

Question: What about the TGI (HS 578T breast) of the same compound?
Answer: > 100 µM

Question: What about the GI50 (HT29 colon) of the same compound?
Answer: > 100 µM

Question: And the TGI (HT29 colon)?
Answer: > 100 µM

Question: And the GI50 (IGROV1 ovarian)?
Answer: > 100 µM

Question: What about the TGI (IGROV1 ovarian) of the same compound?
Answer: > 100 µM

Question: And the GI50 (K-562 leukemia)?
Answer: > 100 µM

Question: And the TGI (K-562 leukemia)?
Answer: > 100 µM

Question: What about the GI50 (KM12 colon) of the same compound?
Answer: > 100 µM

Question: What about the TGI (KM12 colon) of the same compound?
Answer: > 100 µM

Question: What about the GI50 (LOX IMVI melanoma) of the same compound?
Answer: > 100 µM

Question: What about the TGI (LOX IMVI melanoma) of the same compound?
Answer: > 100 µM

Question: What about the GI50 (M14 melanoma) of the same compound?
Answer: > 100 µM

Question: What about the TGI (M14 melanoma) of the same compound?
Answer: > 100 µM

Question: What about the GI50 (MALME-3M melanoma) of the same compound?
Answer: > 100 µM

Question: What about the TGI (MALME-3M melanoma) of the same compound?
Answer: > 100 µM

Question: What about the GI50 (MCF7 breast) of the same compound?
Answer: > 100 µM

Question: And the TGI (MCF7 breast)?
Answer: > 100 µM

Question: What about the GI50 (MDA-MB-231 breast) of the same compound?
Answer: > 100 µM

Question: And the TGI (MDA-MB-231 breast)?
Answer: > 100 µM

Question: And the GI50 (MDA-MB-435)?
Answer: > 100 µM

Question: What about the TGI (MDA-MB-435) of the same compound?
Answer: > 100 µM

Question: And the GI50 (MOLT-4 leukemia)?
Answer: > 100 µM

Question: And the TGI (MOLT-4 leukemia)?
Answer: > 100 µM

Question: And the GI50 (NCI-H226 lung)?
Answer: > 100 µM

Question: What about the TGI (NCI-H226 lung) of the same compound?
Answer: > 100 µM

Question: And the GI50 (NCI-H23 lung)?
Answer: > 100 µM

Question: What about the TGI (NCI-H23 lung) of the same compound?
Answer: > 100 µM

Question: And the GI50 (NCI-H460 lung)?
Answer: > 100 µM

Question: And the TGI (NCI-H460 lung)?
Answer: > 100 µM

Question: And the GI50 (NCI-H522 lung)?
Answer: > 100 µM

Question: What about the TGI (NCI-H522 lung) of the same compound?
Answer: > 100 µM

Question: And the GI50 (NCI/ADR-RES ovarian)?
Answer: > 100 µM

Question: What about the TGI (NCI/ADR-RES ovarian) of the same compound?
Answer: > 100 µM

Question: And the GI50 (OVCAR-3 ovarian)?
Answer: > 100 µM

Question: What about the TGI (OVCAR-3 ovarian) of the same compound?
Answer: > 100 µM

Question: What about the GI50 (OVCAR-4 ovarian) of the same compound?
Answer: > 100 µM

Question: And the TGI (OVCAR-4 ovarian)?
Answer: > 100 µM

Question: And the GI50 (OVCAR-5 ovarian)?
Answer: > 100 µM

Question: And the TGI (OVCAR-5 ovarian)?
Answer: > 100 µM

Question: And the GI50 (OVCAR-8 ovarian)?
Answer: > 100 µM

Question: What about the TGI (OVCAR-8 ovarian) of the same compound?
Answer: > 100 µM

Question: What about the GI50 (PC-3 prostate) of the same compound?
Answer: > 100 µM

Question: And the TGI (PC-3 prostate)?
Answer: > 100 µM

Question: What about the GI50 (RPMI-8226 leukemia) of the same compound?
Answer: > 100 µM

Question: What about the TGI (RPMI-8226 leukemia) of the same compound?
Answer: > 100 µM

Question: And the GI50 (RXF 393 renal)?
Answer: > 100 µM

Question: And the TGI (RXF 393 renal)?
Answer: > 100 µM

Question: What about the GI50 (SF-268 CNS) of the same compound?
Answer: > 100 µM

Question: What about the TGI (SF-268 CNS) of the same compound?
Answer: > 100 µM

Question: And the GI50 (SF-295 CNS)?
Answer: > 100 µM

Question: And the TGI (SF-295 CNS)?
Answer: > 100 µM

Question: And the GI50 (SF-539 CNS)?
Answer: > 100 µM

Question: And the TGI (SF-539 CNS)?
Answer: > 100 µM

Question: And the GI50 (SK-MEL-2 melanoma)?
Answer: > 100 µM

Question: And the TGI (SK-MEL-2 melanoma)?
Answer: > 100 µM

Question: And the GI50 (SK-MEL-28 melanoma)?
Answer: > 100 µM

Question: What about the TGI (SK-MEL-28 melanoma) of the same compound?
Answer: > 100 µM

Question: What about the GI50 (SK-MEL-5 melanoma) of the same compound?
Answer: > 100 µM

Question: What about the TGI (SK-MEL-5 melanoma) of the same compound?
Answer: > 100 µM

Question: And the GI50 (SK-OV-3 ovarian)?
Answer: > 100 µM

Question: And the TGI (SK-OV-3 ovarian)?
Answer: > 100 µM

Question: What about the GI50 (SN12C renal) of the same compound?
Answer: > 100 µM

Question: What about the TGI (SN12C renal) of the same compound?
Answer: > 100 µM

Question: And the GI50 (SNB-19 CNS)?
Answer: > 100 µM

Question: What about the TGI (SNB-19 CNS) of the same compound?
Answer: > 100 µM

Question: And the GI50 (SNB-75 CNS)?
Answer: > 100 µM

Question: And the TGI (SNB-75 CNS)?
Answer: > 100 µM

Question: What about the GI50 (SR leukemia) of the same compound?
Answer: > 100 µM

Question: What about the TGI (SR leukemia) of the same compound?
Answer: > 100 µM

Question: What about the GI50 (SW-620 colon) of the same compound?
Answer: > 100 µM

Question: And the TGI (SW-620 colon)?
Answer: > 100 µM

Question: What about the GI50 (T-47D breast) of the same compound?
Answer: > 100 µM

Question: What about the TGI (T-47D breast) of the same compound?
Answer: > 100 µM

Question: What about the GI50 (TK-10 renal) of the same compound?
Answer: > 100 µM

Question: And the TGI (TK-10 renal)?
Answer: > 100 µM

Question: And the GI50 (U251 CNS)?
Answer: > 100 µM

Question: What about the TGI (U251 CNS) of the same compound?
Answer: > 100 µM

Question: What about the GI50 (UACC-257 melanoma) of the same compound?
Answer: > 100 µM

Question: What about the TGI (UACC-257 melanoma) of the same compound?
Answer: > 100 µM

Question: What about the GI50 (UACC-62 melanoma) of the same compound?
Answer: > 100 µM

Question: What about the TGI (UACC-62 melanoma) of the same compound?
Answer: > 100 µM

Question: What about the GI50 (UO-31 renal) of the same compound?
Answer: > 100 µM

Question: What about the TGI (UO-31 renal) of the same compound?
Answer: > 100 µM

From PubChem BioAssay (NCI)
